Results published in US7329688B2, “Natural vitamin E compositions with superior antioxidant potency” (Soft Gel Technologies, Inc., priority 2002, dated 2008).

Test: Oxygen radical absorbance capacity (ORACFL-LIPO) assay with fluorescein probe, RMCD, AAPH, Trolox standard
Conditions: for Antioxidant activity (ORAC), μmole Trolox equivalent per gram sample: 75 mM phosphate buffer pH 7.4, 7% RMCD; for Antioxidant activity (ORAC) per 400 IU: μmole TE/g × total weight in grams of formula which gives 400 IU
Description: The antioxidant activities of natural d-alpha-tocopherol, mixed tocopherols and tocotrienols, and formulations comprising all forms of vitamin E were determined employing an improved oxygen radical absorbance capacity (ORAC) assay using fluorescein (FL) as a fluorescent probe, randomly methylated β-cyclodextrin (RMCD) to enhance solubility of lipophilic antioxidants in aqueous medium, 2,2′-azobis (2-amidino-propane) dihydrochloride (AAPH) as peroxyl radical generator, and Trolox as a standard in 75 mM phosphate buffer.
(§1) The antioxidant activity, commonly referred to as oxygen radical absorbance capacity (ORAC), of a lipophilic substance was measured employing a newly developed assay. This assay is based on the use of: (a) fluorescein (FL) as the fluorescent probe, (b) randomly methylated β-cyclodextrin (RMCD) as a molecular host to enhance the solubility of lipophilic antioxidants in aqueous solution, (c) 2,2′-azobis (2-amidino-propane) dihydrochloride (AAPH) as a peroxyl radical generator, and (d) 6-hydroxy-2,5,7,8-tetramethyl-2-carboxylic acid (Trolox) as a standard in 75 mM phosphate buffer (pH 7.4).
The antioxidant activities of vitamin E formulations comprising all compounds of tocopherols and tocotrienols were determined employing an improved oxygen radical absorbance capacity (abbreviated ORACFL-LIPO) assay using fluorescein (FL) as the fluorescent probe, randomly methylated β-cyclodextrin (RMCD) as the water solubility enhancer for lipophilic antioxidants in 75 mM phosphate buffer (pH 7.4).
In the presence ofperoxyl radicals derived from AAPH, the indicator FL gradually loses its fluorescence. The antioxidant activity of a substance is measured by its ability to retain the fluorescence of FL in the presence of peroxyl radicals. The net protection of FL was measured as previously described by Ou et al.
All other standards were commercially available form Sigma or Aldrich. All ORAC analyses were performed on a COBAS FARA II analyzer (Roche Diagnostic System Inc., Branchburg, NJ) using an excitation wavelength of 493 nm and an emission filter of 515 nm.
Approximately 0.5 g of sample was dissolved in 20 mL of acetone. An aliquot of sample solution was appropriately diluted with 7% RMCD solvent (w/v) made in a 50% acetone-water mixture (v/v) and was shaken for 1 hr at room temperature on an orbital shaker at 400 rpm. The sample solution was ready for analysis after further dilution with 7% RMCD solvent.
The automated ORAC assay was carried out on a COBAS FARA II spectrofluorometer centrifugal analyzer as previously described (9). With the exception of samples and Trolox standards, which were made in 7% RMCD solvent, all other reagents were prepared at 75 mM phosphate buffer (pH 7.4). In the final assay mixture (0.4 mL total volume), FL (6.3×10^−8 M) was used as a target of free radical attack and AAPH (1.28×10^−2 M) was used as a peroxyl radical generator. 7% RMCD was used as the blank, and Trolox (12.5, 25,50, and 100 μM) was used as the control standard. The analyzer was programmed to record the fluorescence of FL every minute after the addition of AAPH. All measurements were expressed relative to the initial reading. Final results were calculated using the differences of areas under the FL decay curves between the blank and a sample.
as §1, with “6-hydroxy-2,5,7,8-tetrmethyl-2-carboxylic” for “6-hydroxy-2,5,7,8-tetramethyl-2-carboxylic”
In the presence of peroxyl radicals derived from AAPH, the indicator FL gradually loses its fluorescence. […]

Structure (SMILES) | Antioxidant activity (ORAC), μmole Trolox equivalent per gram sample (Table 1) | Antioxidant activity (ORAC) in words, relative to d-alpha-tocopherol (qualitative statement) | Antioxidant activity (ORAC), μmole Trolox equivalent per gram sample (Table 1, listed as alpha-tocopherol (87%)) | Antioxidant activity (ORAC), μmole Trolox equivalent per gram sample (Table 1, listed as d-alpha-tocopherol (87%)) | Antioxidant activity (ORAC) per 400 IU (Table 1) [μmole TE/400IU] | Antioxidant activity (ORAC), μmole Trolox equivalent per gram sample (Table 2) | Antioxidant activity (ORAC) per 400 IU (Table 2) [μmole TE/400IU]
CC(=O)Oc1c(C)c(C)c2c(c1C)CCC(C)(CCC[C@H](C)CCC[C@H](C)CCCC(C)C)O2 (stereo partly drawn) [Alpha-Tocopherol Acetate] | 14 ± 10 μmole TE/g | no antioxidant activity | – | – | – | – | –
Cc1c(C)c2c(c(C)c1O)CC[C@@](C)(CCC[C@H](C)CCC[C@H](C)CCCC(C)C)O2 [d-alpha-Tocopheral (87%), d-alpha-tocopherol] | 1,293 ± 64 μmole TE/g | – | 1,293 μmole TE/g | 1,293 μmole TE/g | 398 | 1,293 ± 80 μmole TE/g | 413
